Drawing on patent US10377772B2, “Macrocyclic LRRK2 kinase inhibitors” (Oncodesign S.A., priority 2014, dated 2019), this text covers IC50 for 63 compounds.

The assay deals with LRRK2 recombinant protein (Homo sapiens (Human), UniProt Q5S007). The assay is described as follows: radiometric protein kinase assay (33PanQinase Activity Assay) for LRRK2. Type of assay: biochemical. The note with it: ATP 0.3 μM, LRRK2 7.3 nM, substrate GSK3(14-27), 30° C. for 60 minutes. The procedure:
The inhibition of LRRK2 kinase was assessed using LRRK2 recombinant protein in an in vitro peptide-based kinase assay.
A radiometric protein kinase assay (^33PanQinase® Activity Assay) is used for measuring the kinase activity. All assays are performed in 96-well FlashPlates™ from Perkin Elmer in a 50 μl reaction volume. The reaction cocktail is pipetted in 4 steps in the following order: • 10 μl of non-radioactive ATP solution (in H2O) • 25 μl of assay buffer/[γ-^33P]-ATP mixture • 5 μl of test sample in 10% DMSO • 10 μl of enzyme/substrate mixture
The assay for LRRK2 contains 70 mM HEPES-NaOH pH 7.5, 3 mM MgCl2, 3 mM MnCl2, 3 μM Na-orthovanadate, 1.2 mM DTT, 50 μg/ml PEG20000, ATP (0.3 μM), [γ-^33P]-ATP (approx. […] per well), protein kinase LRRK2 (7.3 nM) and substrate (GSK3(14-27), 1.0 μg/50 μl).
The kinase is obtained from Invitrogen Corporation.
The reaction cocktails were incubated at 30° C. for 60 minutes. The reaction was stopped with 50 μl of 2% (v/v) H3PO4, plates were aspirated and washed two times with 200 μl 0.9% (w/v) NaCl. Incorporation of ^33Pi (counting of “cpm”) was determined with a microplate scintillation counter.
The compounds are dissolved to 10 mM in DMSO. Where needed, solutions are sonicated in a bath sonicator.
Table 2 provides the pIC50 values of the compounds according to the invention, obtained using the above mentioned kinase assay.

What is called IC50 is the concentration that inhibits the measured activity by half.

LRRK2 recombinant protein, sequence (Q5S007 whole entry): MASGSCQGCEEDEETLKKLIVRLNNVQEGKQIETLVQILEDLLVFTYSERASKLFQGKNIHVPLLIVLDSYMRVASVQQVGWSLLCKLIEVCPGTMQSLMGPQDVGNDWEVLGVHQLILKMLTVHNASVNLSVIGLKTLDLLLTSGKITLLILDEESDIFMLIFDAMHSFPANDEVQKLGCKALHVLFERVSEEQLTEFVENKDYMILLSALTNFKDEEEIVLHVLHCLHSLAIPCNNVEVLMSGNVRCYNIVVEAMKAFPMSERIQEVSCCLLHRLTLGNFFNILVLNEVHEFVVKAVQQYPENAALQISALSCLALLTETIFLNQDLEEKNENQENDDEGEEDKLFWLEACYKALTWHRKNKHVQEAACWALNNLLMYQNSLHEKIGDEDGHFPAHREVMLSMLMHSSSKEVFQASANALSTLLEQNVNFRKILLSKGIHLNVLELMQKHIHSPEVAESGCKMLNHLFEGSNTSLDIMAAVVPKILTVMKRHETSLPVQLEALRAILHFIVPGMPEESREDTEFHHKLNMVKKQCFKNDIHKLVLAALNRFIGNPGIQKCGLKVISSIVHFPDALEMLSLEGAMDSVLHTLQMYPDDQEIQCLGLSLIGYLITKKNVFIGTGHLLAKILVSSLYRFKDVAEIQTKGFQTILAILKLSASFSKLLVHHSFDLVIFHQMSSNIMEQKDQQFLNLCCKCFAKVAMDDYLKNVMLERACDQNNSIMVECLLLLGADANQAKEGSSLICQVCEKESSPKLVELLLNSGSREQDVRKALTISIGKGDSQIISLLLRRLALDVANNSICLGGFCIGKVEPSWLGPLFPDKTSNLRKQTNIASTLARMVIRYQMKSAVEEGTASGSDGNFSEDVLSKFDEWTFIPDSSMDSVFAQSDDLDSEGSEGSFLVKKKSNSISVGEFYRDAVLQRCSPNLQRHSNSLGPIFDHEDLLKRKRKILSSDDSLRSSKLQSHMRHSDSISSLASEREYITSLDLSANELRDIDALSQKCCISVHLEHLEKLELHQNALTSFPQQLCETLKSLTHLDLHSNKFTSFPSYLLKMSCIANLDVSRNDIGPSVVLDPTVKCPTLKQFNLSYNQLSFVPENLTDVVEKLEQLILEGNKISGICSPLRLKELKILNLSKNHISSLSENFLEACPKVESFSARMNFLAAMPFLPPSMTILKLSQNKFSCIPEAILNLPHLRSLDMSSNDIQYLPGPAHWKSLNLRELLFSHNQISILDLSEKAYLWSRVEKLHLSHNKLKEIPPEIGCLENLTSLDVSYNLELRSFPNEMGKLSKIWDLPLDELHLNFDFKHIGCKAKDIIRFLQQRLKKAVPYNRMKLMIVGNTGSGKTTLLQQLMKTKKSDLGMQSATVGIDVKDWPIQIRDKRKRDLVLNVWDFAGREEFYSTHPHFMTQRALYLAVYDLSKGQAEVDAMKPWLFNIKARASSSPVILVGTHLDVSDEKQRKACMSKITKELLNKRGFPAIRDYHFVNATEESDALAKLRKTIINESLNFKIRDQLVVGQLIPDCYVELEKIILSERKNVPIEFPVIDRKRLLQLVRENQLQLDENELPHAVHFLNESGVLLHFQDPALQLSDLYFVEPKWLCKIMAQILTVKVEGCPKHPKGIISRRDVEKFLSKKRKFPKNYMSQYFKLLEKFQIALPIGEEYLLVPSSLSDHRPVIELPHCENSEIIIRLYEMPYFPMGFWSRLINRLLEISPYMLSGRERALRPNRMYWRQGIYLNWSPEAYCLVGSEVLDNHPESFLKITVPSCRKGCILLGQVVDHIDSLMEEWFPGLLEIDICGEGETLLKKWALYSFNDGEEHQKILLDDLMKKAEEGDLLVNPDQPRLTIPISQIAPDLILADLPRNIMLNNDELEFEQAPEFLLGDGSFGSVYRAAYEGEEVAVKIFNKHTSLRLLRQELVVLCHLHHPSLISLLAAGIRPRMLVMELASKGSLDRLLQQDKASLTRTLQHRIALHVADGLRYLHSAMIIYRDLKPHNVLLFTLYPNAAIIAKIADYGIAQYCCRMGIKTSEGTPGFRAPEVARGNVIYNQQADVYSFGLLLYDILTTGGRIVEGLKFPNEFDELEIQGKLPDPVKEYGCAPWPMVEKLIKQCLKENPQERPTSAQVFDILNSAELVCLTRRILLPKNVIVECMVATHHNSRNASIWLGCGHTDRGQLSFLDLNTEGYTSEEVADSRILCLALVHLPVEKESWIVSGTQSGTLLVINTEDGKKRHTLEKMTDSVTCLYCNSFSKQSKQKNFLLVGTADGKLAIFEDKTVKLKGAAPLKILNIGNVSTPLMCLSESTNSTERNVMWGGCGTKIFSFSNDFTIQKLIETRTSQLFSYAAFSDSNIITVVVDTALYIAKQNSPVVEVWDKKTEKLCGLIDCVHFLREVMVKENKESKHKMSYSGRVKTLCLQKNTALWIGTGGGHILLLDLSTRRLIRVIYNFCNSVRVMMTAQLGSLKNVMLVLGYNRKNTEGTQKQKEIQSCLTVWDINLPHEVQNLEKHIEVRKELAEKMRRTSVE

Regarding `c1cc2cc(c1)-c1cnn3ccc(nc13)NCCN1CCC[C@H]1CO2` [Example N1], the IC50 was below 100 nM.

Turning to `Fc1ccc2cc1-c1cnn3ccc(nc13)NCCN1CCC[C@H]1CN2` [Example N2], the IC50 was below 100 nM. The result for `Fc1ccc2cc1-c1cnn3ccc(nc13)NC1CCN(CCN2)CC1` [Example N3] reads below 100 nM; that for `Fc1ccc2cc1-c1cnn3ccc(nc13)NCCN1CCC(CC1)N2` [Example N4], below 100 nM; that for `Fc1ccc2cc1-c1cnn3ccc(nc13)NCCC1CCCN1CCN2` (stereo not drawn) [Example N5], below 100 nM. Next, `Fc1ccc2cc1-c1cnn3ccc(nc13)NC1CCN(CCCN2)C1` (stereo not drawn) [Example N6]: below 100 nM; `Fc1ccc2cc1-c1cnn3ccc(nc13)OCCN1CCC(CC1)N2` [Example N7]: below 100 nM; `Fc1ccc2cc1-c1cnn3ccc(nc13)NCCN1CCC[C@H]1CO2` [Example N8]: below 100 nM.

For `Fc1ccc2cc1-c1cnn3ccc(nc13)OC1CCN(CCN2)CC1` [Example N9], the IC50 was in the range of 100 to 1000 nM. The result for `Cc1cc(F)c2cc1NC[C@@H]1CCCN1CCNc1ccn3ncc-2c3n1` [Example N10] reads below 100 nM.

In the case of `CN1CCN2CCC[C@H]2COc2ccc(F)c(c2)-c2cnn3ccc1nc23` [Example N11], the IC50 was below 100 nM. The result for `Fc1ccc2cc1-c1cnn3ccc(nc13)NCCN1C[C@H](F)C[C@H]1CO2` [Example N12] reads below 100 nM; that for `Fc1ccc2cc1-c1cnn3ccc(nc13)OCCCN1CCC[C@H]1CN2` [Example N13], 100 to 1000 nM; that for `Fc1ccc2cc1-c1cnn3ccc(nc13)NCCCN1CCC[C@H]1CO2` [Example N14], below 100 nM. As for `CN1c2ccn3ncc(c3n2)-c2cc(ccc2F)OCCN2CCC1CC2` [Example N15], the IC50 is below 100 nM. Next, `CN1CCN2CCC[C@H]2CNc2ccc(F)c(c2)-c2cnn3ccc1nc23` [Example N16]: below 100 nM. Next, `Fc1ccc2cc1-c1cnn3ccc(nc13)NCCN1CCCC[C@H]1CO2` [Example N17]: below 100 nM; `Fc1ccc2cc1-c1cnn3ccc(nc13)NCCN1CCCC[C@H](C1)O2` [Example N18]: below 100 nM.

Take `CN1CCN2CCCC[C@H]2COc2ccc(F)c(c2)-c2cnn3ccc1nc23` [Example N19]: the IC50 is below 100 nM. Regarding `Fc1ccc2cc1-c1cnn3ccc(nc13)NCCN1CCNC[C@H]1CO2` [Example N20], the IC50 is below 100 nM. Next, `Fc1ccc2cc1-c1cnn3ccc(nc13)OCCN1CCC[C@H]1CN2` [Example N21]: below 100 nM; `Fc1ccc2cc1-c1cnn3ccc(nc13)NCCN1CCOC[C@H]1CO2` [Example N22]: below 100 nM; `CN1CCN2CCNc3ccn4ncc(c4n3)-c3cc(ccc3F)OC[C@@H]2C1` [Example N23]: below 100 nM. For `CN1CCN2CCN(C)c3ccn4ncc(c4n3)-c3cc(ccc3F)OC[C@@H]2C1` [Example N24], the IC50 was below 100 nM. Next, `CN1CCN2CCOC[C@H]2COc2ccc(F)c(c2)-c2cnn3ccc1nc23` [Example N25]: below 100 nM.

`Fc1cc(Cl)c2cc1-c1cnn3ccc(nc13)NCCN1CCC[C@H]1CO2` [Example N26]: the half-inhibitory concentration (IC50) is below 100 nM. The result for `Fc1ccc2cc1-c1cnn3ccc(nc13)NCCN1C[C@H]3CCCN3C[C@H]1CO2` [Example N27] reads below 100 nM; that for `Fc1ccc2cc1-c1cnn3ccc(nc13)NCCN1CCNC[C@H](C1)O2` [Example N28], below 100 nM. Take `CN1CCN2C[C@H]3CCCN3C[C@H]2COc2ccc(F)c(c2)-c2cnn3ccc1nc23` [Example N29]: the IC50 is below 100 nM. The result for `Fc1ccc2cc1-c1cnn3ccc(nc13)NCCN1C[C@H]3CCCN3C[C@@H]1CO2` [Example N30] reads below 100 nM; that for `CN1CCN2C[C@H](CN3CCC[C@H]3C2)Oc2ccc(F)c(c2)-c2cnn3ccc1nc23` [Example N31], below 100 nM; that for `CC(=O)N1CCN2CCNc3ccn4ncc(c4n3)-c3cc(ccc3F)OC[C@@H]2C1` [Example N32], below 100 nM. Next, `Fc1ccc2cc1-c1cnn3ccc(nc13)NCCN1CCC(CC1)O2` [Example N33]: below 100 nM; `CN1CCN2CCC(CC2)Oc2ccc(F)c(c2)-c2cnn3ccc1nc23` [Example N34]: below 100 nM.

With `Fc1ccc2cc1-c1cnn3ccc(nc13)NCCN1CCNC[C@@H]1CO2` [Example N35], the IC50 is below 100 nM. Turning to `CN1CCN2CCNc3ccn4ncc(c4n3)-c3cc(ccc3F)OC[C@H]2C1` [Example N36], the concentration for half-maximal inhibition (IC50) is below 100 nM.

Regarding `Fc1ccc2cc1-c1cnn3ccc(nc13)CCCN1CCC[C@H]1CO2` [Example N37], the IC50 was below 100 nM. The result for `Fc1ccc2cc1-c1cnn3ccc(nc13)NCCN1C[C@@H]3CCCN3C[C@H]1CO2` [Example N38] reads below 100 nM.

Turning to `Fc1ccc2cc1-c1cnn3ccc(nc13)NCCN1C[C@@H](F)C[C@H]1CO2` [Example N39], the IC50 was in the range of 100 to 1000 nM. Next, `C[C@H]1C[C@@H]2CCN1CCNc1ccn3ncc(c3n1)-c1cc(ccc1F)O2` [Example N40]: below 100 nM; `Fc1ccc2cc1-c1cnn3ccc(nc13)NCCN1CCC=C[C@H]1CO2` [Example N41]: below 100 nM; `CN1CCN2C[C@@H]3CCCN3C[C@H]2COc2ccc(F)c(c2)-c2cnn3ccc1nc23` [Example N42]: below 100 nM. The result for `Fc1ccc2cc1-c1cnn3ccc(nc13)NCCN1C[C@@H](CN3CCC[C@H]3C1)O2` [Example N43] reads below 100 nM; that for `CN1CCN2C[C@@H](CN3CCC[C@H]3C2)Oc2ccc(F)c(c2)-c2cnn3ccc1nc23` [Example N44], below 100 nM. The result for `C[C@@H]1CN2CCNc3ccn4ncc(c4n3)-c3cc(ccc3F)OC[C@@H]2CN1` [Example N45] reads below 100 nM; that for `C[C@@H]1CN2CCNc3ccn4ncc(c4n3)-c3cc(ccc3F)OC[C@@H]2CN1C` [Example N46], below 100 nM; that for `C[C@@H]1CN2CCNc3ccn4ncc(c4n3)-c3cc(ccc3F)OC[C@@H]2CN1C1CC1` [Example N47], below 100 nM. Regarding `CCCN1C[C@H]2COc3ccc(F)c(c3)-c3cnn4ccc(nc34)NCCN2C[C@H]1C` [Example N48], the IC50 was below 100 nM. `C[C@@H]1CN2CCNc3ccn4ncc(c4n3)-c3cc(ccc3F)OC[C@@H]2CN1CC1CC1` [Example N49]: the IC50 is below 100 nM. Next, `CCN1C[C@H]2COc3ccc(F)c(c3)-c3cnn4ccc(nc34)NCCN2C[C@H]1C` [Example N50]: below 100 nM; `CC(C)[C@H]1CN2CCNc3ccn4ncc(c4n3)-c3cc(ccc3F)O[C@H](CN1)C2` [Example N51]: below 100 nM. Consider `Fc1ccc2cc1-c1cnc3ccc(nn13)NCCN1CCC[C@H]1CO2` [Example N52], for which the IC50 was below 100 nM. Turning to `C[C@H]1CN2CCNc3ccn4ncc(c4n3)-c3cc(ccc3F)OC[C@@H]2CN1` [Example N53], the IC50 is below 100 nM. The result for `C[C@H]1CN2CCNc3ccn4ncc(c4n3)-c3cc(ccc3F)O[C@H](CN1)C2` [Example N54] reads below 100 nM. The result for `CC1(C)CN2CCNc3ccn4ncc(c4n3)-c3cc(ccc3F)OC[C@@H]2CN1` [Example N55] reads below 100 nM; that for `CC(C)[C@H]1CN2CCN(C)c3ccn4ncc(c4n3)-c3cc(ccc3F)OC[C@@H]2CN1` [Example N56], 100 to 1000 nM; that for `Fc1ccc2cc1-c1cnn3ccc(nc13)N[C@H]1CCCN(CCO2)C1` [Example N57], below 100 nM. The result for `CC1(C)CN2CCNc3ccn4ncc(c4n3)-c3cc(ccc3F)O[C@H](CN1)C2` [Example N58] reads below 100 nM; that for `Fc1ccc2cc1-c1cnc3ccc(nn13)NCCN1CCCC[C@H](C1)O2` [Example N59], below 100 nM; that for `Fc1ccc2cc1-c1cnn3ccc(nc13)N[C@@H]1CCN(CCO2)C1` [Example N60], below 100 nM.

For `CN1c2ccn3ncc(c3n2)-c2cc(ccc2F)OCCN2CC[C@@H]1C2` [Example N61], the IC50 was below 100 nM. The result for `CC1(C)CN2CCNc3ccn4ncc(c4n3)-c3cc(ccc3F)OC[C@@H]2CN1C1CC1` [Example N62] reads below 100 nM; that for `C=CCN1C[C@H]2COc3ccc(F)c(c3)-c3cnn4ccc(nc34)NCCN2CC1(C)C` [Example N63], below 100 nM.
